These results are taken from PubChem BioAssay (NCI).

Assay in all cases: inhibition of tumour cell growth, NCI panel, 48 h
In assay [1] the test system is MDA-MB-231 breast.
In assay [2] the test system is KM12 colon.
The test system of assay [3] is MDA-MB-435.
Assay [4] deals with SK-OV-3 ovarian.
The test system of assay [5] is ACHN renal.
Assay [6] has as its system HL-60(TB) leukemia.
Assay [7] has as its system A498 renal.
The test system of assay [8] is SK-MEL-28 melanoma.
In assay [9] the test system is MCF7 breast.
The subject of assay [10] is M14 melanoma.

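Step 1: Grow cells in 96-well plates. Step 2: Expose to compound for 48 hours at 5 concentrations. Step 3: Interpolate endpoints linearly; if unreached, use highest concentration. Abbreviation: GI50, concentration required for 50% inhibition of growth. The concentration for full growth arrest is given as TGI.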

On to `COC(=O)NC1=Nc2ccccc2C(=O)NN1`, for which the TGI in assay [1], in assay [2], in [3], in assay [4], in assay [5] and in assay [6] was more than 100 µM each time. For the same compound, the TGI in assay [7], in [8], in [9] and in assay [10] was more than 100 µM in each case.

With `CCc1nc(N)nc(N)c1-c1ccc(N2CCNCC2)c([N+](=O)[O-])c1`, the TGI in [1] was 69.2 µM; in assay [2], more than 100 µM; in [3] it was more than 100 µM; in assay [4] it was more than 100 µM; in assay [5], more than 100 µM; in assay [6], more than 85.2 µM. The TGI in assay [7] is more than 100 µM; in [8], more than 100 µM; in [9], more than 79.1 µM; in assay [10] it was 31.9 µM.

For `C=C(CC)C(=O)c1ccc(OCC(=O)O)c(Cl)c1Cl`, the TGI in assay [1] is 34.6 µM; in assay [2], 21.4 µM; in [3] it was 32.3 µM; in assay [4] it was more than 100 µM; in assay [5] it was more than 72.9 µM; in assay [6], more than 85 µM. The TGI in assay [7] was more than 100 µM; in assay [8], 33.6 µM; in assay [9], 20.8 µM; in [10], 45 µM.

Take `Cc1c(Br)c(Br)c2c3c1nc(N1CCNCC1)n3CCC2`: the GI50 in assay [1] was 1.36 µM; in assay [2], 1.72 µM; in assay [3], 1.73 µM; in assay [4], 3.59 µM; in assay [5], 1.39 µM; in assay [6], 2.16 µM. In addition, the GI50 in assay [7] is 1.44 µM; in [8] it was 1.79 µM; in [9] it was 1.75 µM; in assay [10] it was 1.8 µM. The TGI in assay [1] came to 2.74 µM; in assay [2] it was 3.2 µM; in [3] it was 3.22 µM; in assay [4] it was 13.1 µM; in assay [5], 2.71 µM; in [6], 5.31 µM. Besides, the TGI in assay [7] is 2.99 µM; in assay [8], 3.39 µM; in assay [9] it was 3.49 µM; in assay [10], 3.55 µM.

Consider `CCOC(=O)C(Cc1ccccc1)n1c(O)c(/C=N/c2ncc(Cc3ccc(Cl)cc3Cl)s2)sc1=S` (stereo not given), for which the GI50 in assay [1] is 3.88 µM; in assay [2], 1.84 µM; in assay [3], 3.38 µM; in assay [4], 2.38 µM; in assay [5], 2.92 µM; in assay [6], 2.29 µM. The GI50 in assay [7] is 1.58 µM; in assay [8], 2.61 µM; in assay [9], 2.36 µM; in [10], 3.02 µM. The TGI in [1] is 21.4 µM; in [2], 11.6 µM; in [3] it was more than 100 µM; in assay [4], 11.8 µM; in assay [5], more than 100 µM; in assay [6], 7.06 µM. Further, the TGI in [7] was 7.64 µM; in assay [8] it was 26.4 µM; in assay [9] it was more than 100 µM; in assay [10] it was 16.7 µM.

Regarding `Cc1cc2c(C(C)C)c(O)c(O)c(/C=N/O)c2c(O)c1-c1c(C)cc2c(C(C)C)c(O)c(O)c(/C=N/O)c2c1O`, the GI50 in assay [1] was 3.5 µM; in assay [2], 2.36 µM; in [3], 2.78 µM; in assay [4] it was 3.6 µM; in [5], 2.04 µM; in assay [6], 2.61 µM. Also, the GI50 is 2.54 µM in assay [7], 1.84 µM in assay [8], 2.52 µM in [9] and 2.46 µM in [10]. Moreover, the TGI was found to be 20.2 µM in [1]; 8.52 µM in [2]; 12.1 µM in [3]; 11.9 µM in assay [4]; 7.45 µM in assay [5]; 10.6 µM in assay [6]. In addition, the TGI in [7] stood at 10.4 µM; in [8], 6.8 µM; in [9], 12.2 µM; in assay [10], 10.1 µM.

As to `C/C=C(/C)C(=O)OC1C=C(CO)C(=O)C(OC(=O)C2(C)OC2C)C1C(C)C` (stereo not given), the GI50 is 1.72 µM in [1]; 1.83 µM in [2]; 1.49 µM in assay [3]; 4.45 µM in assay [4]; 1.48 µM in [5]; 1.16 µM in assay [6]. The GI50 in assay [7] was 1.74 µM; in [8], 1.78 µM; in [9], 1.19 µM; in [10], 1.58 µM. In addition, the TGI in assay [1] stood at 3.79 µM; in assay [2] it was 3.67 µM; in [3], 2.88 µM; in [4], 14.3 µM; in [5], 2.81 µM; in assay [6], 6.45 µM. Further, the TGI turned out to be 3.9 µM in assay [7], 3.33 µM in [8], 4.14 µM in [9] and 3.49 µM in [10].

For `O=C1NC(=NCCc2ccccc2F)S/C1=C\c1ccc2ncccc2c1`, the GI50 in [1] was 16.2 µM; in assay [2], 4.02 µM; in assay [3], 1.57 µM; in [4], 7.82 µM; in assay [5], 9.06 µM; in assay [6] it was 9.14 µM. Besides, the GI50 in assay [7] is 4.83 µM; in assay [8], 11.7 µM; in assay [9], 1.68 µM; in [10] it was 8.42 µM. Also, the TGI in assay [1] is more than 25 µM; in assay [2], more than 25 µM; in assay [3] it was more than 16.8 µM; in assay [4] it was more than 25 µM; in [5], more than 25 µM; in [6] it was 22.1 µM. The TGI in assay [7] is 18.2 µM; in assay [8], more than 25 µM; in [9] it was more than 25 µM; in [10] it was more than 25 µM.

As for `C/C(=N\O)C1CC(CC(=O)O)C1(C)C` (stereo not given), the TGI in assay [1], in assay [2], in assay [3], in assay [4], in assay [5] and in assay [6] was more than 100 µM each time. Besides, the TGI in assay [7], in assay [8], in assay [9] and in assay [10] was more than 100 µM in each case.

As for `Cn1ccc(S(=O)(=O)N2CCC[C@H](Nc3nccc(-c4c(-c5cccc(O)c5)nc5occn45)n3)C2)n1`, the GI50 in [1] was 6.23 µM; in assay [2], 18.3 µM; in assay [3], 0.329 µM; in assay [4], 5.71 µM; in [5], 7.19 µM; in assay [6], 10.8 µM. The GI50 in assay [7] was 6.8 µM; in assay [8], 0.0938 µM; in [9], 12.8 µM; in [10], 0.112 µM. Also, the TGI was more than 66.6 µM in assay [1]; more than 86.9 µM in assay [2]; 29.3 µM in assay [3]; 49.6 µM in [4]; more than 100 µM in assay [5]; 32.3 µM in [6]. In addition, the TGI in assay [7] was 26.1 µM; in assay [8] it was 20.5 µM; in assay [9] it was 55.3 µM; in assay [10], 13.9 µM.

`Cn1cc(Nc2nccc(-c3ccc4c(c3)CN(C3COC3)CC[C@H]4NC(=O)c3cn(C(C)(C)C)nn3)n2)cn1`: the GI50 in assay [1] was 77.3 µM; in [2] it was 72.6 µM; in assay [3] it was 42.3 µM; in [4], 62.5 µM; in [5], 66.3 µM; in assay [6] it was more than 100 µM. The GI50 is 76.5 µM in [7], 46.9 µM in [8], 41.4 µM in assay [9] and 36.6 µM in assay [10]. Also, the TGI in assay [1], in assay [2], in [3], in assay [4], in assay [5] and in assay [6] was more than 100 µM in each case. In addition, the TGI in assay [7], in assay [8], in assay [9] and in [10] was more than 100 µM each time.

Regarding `COc1cc(C(=O)/C=C/c2cccnc2Nc2ccc(Cl)cc2)cc(OC)c1OC`, the GI50 in [1] was 1.49 µM; in assay [2] it was 1.83 µM; in assay [3], 1.49 µM; in assay [4] it was 1.72 µM; in assay [5] it was 1.77 µM; in [6] it was 1.59 µM. The GI50 was 1.41 µM in assay [7], 1.72 µM in assay [8], 1.02 µM in assay [9] and 1.75 µM in assay [10]. Moreover, the TGI turned out to be 3.12 µM in [1]; 3.55 µM in assay [2]; 3.36 µM in assay [3]; 3.29 µM in [4]; 3.18 µM in assay [5]; 5.14 µM in assay [6]. Further, the TGI worked out at 2.84 µM in assay [7], 3.12 µM in [8], 2.35 µM in assay [9] and 3.22 µM in assay [10].

In the case of `Cc1[nH]c(N)nc(=S)c1CCCNc1ccccc1`, the TGI in assay [1], in assay [2], in assay [3], in assay [4], in assay [5] and in assay [6] was more than 100 µM throughout. Further, the TGI in assay [7] is 92.4 µM; in [8] it was more than 100 µM; in [9], more than 100 µM; in assay [10], more than 100 µM.

Regarding `NC(=O)NC(=O)Nc1ccc(Br)cc1`, the TGI in assay [1] was more than 42.1 µM; in assay [2] it was more than 32.8 µM; in [3], more than 22 µM; in assay [4] it was more than 100 µM; in [5], more than 30.3 µM; in assay [6] it was more than 6.62 µM. Moreover, the TGI is more than 100 µM in assay [7], more than 17.7 µM in assay [8], more than 100 µM in assay [9] and more than 45.1 µM in assay [10].

As for `COC(=O)C1C(=O)C(C(=O)OC)C2CCC1N2C` (stereo not given), the TGI in assay [1] was more than 100 µM; in assay [2], more than 100 µM; in assay [3], more than 79.3 µM; in [4] it was more than 100 µM; in [5] it was more than 100 µM; in [6], more than 65.8 µM. Also, the TGI in assay [7], in assay [8], in assay [9] and in assay [10] was more than 100 µM in each case.
